Experimental data from publication doi:10.1101/2024.08.19.608619, “Discovery of potent SARS-CoV-2 nsp3 macrodomain inhibitors uncovers lack of translation to cellular antiviral response” (bioRxiv, 2024).
Where two headings read alike, the source gives them in different places.

What was measured:
[1] = target: T1, SARS-CoV-2 nsp3-mac1 (Severe acute respiratory syndrome coronavirus 2, UniProt P0DTD1); test: biochemical; format: biochemical; settings: SARS-CoV-2 nsp3 macrodomain TR-FRET single point
[2] = target: T1, SARS-CoV-2 nsp3-mac1; test: biochemical; set-up: SARS-CoV-2 nsp3 macrodomain TR-FRET single point, per cent inhibition, n=2
[3] = read-out: perc_inhibition_mean, batch_name=ASAP-0000061-002

## CCCNC(=O)[C@H]1CCCN(c2ncnc3[nH]ccc23)C1 [ASAP-0000053]
[1]; concentration 50.0 uM
  perc_inhibition_mean: -4.36%
[2]; read-out: perc_inhibition_mean, batch_name=ASAP-0000053-001
  inhibition at 50 µM: -4.36%

## c1cnc([C@@H]2CCN(c3ncnc4[nH]ccc34)C2)cn1 [ASAP-0000054]
[1]; concentration 50.0 uM
  perc_inhibition_mean: -1.697%
[2]; read-out: perc_inhibition_mean, batch_name=ASAP-0000054-001
  inhibition at 50 µM: -1.7%

## c1nc(N2CCC[C@@H](c3nc4c(s3)CCC4)C2)c2c[nH]nc2n1 [ASAP-0000055]
[1]; concentration 50.0 uM
  perc_inhibition_mean: 3.826%
[2]; read-out: perc_inhibition_mean, batch_name=ASAP-0000055-001
  inhibition at 50 µM: 3.83%

## O[C@@]1(C(F)(F)F)CCCN(c2ncnc3n[nH]cc23)CC1 [ASAP-0000057]
[1]; concentration 50.0 uM
  perc_inhibition_mean: -4.139%
[2]; read-out: perc_inhibition_mean, batch_name=ASAP-0000057-001
  inhibition at 50 µM: -4.14%

## CN(C)[C@@H]1CCCN(C(=O)c2cnc3c(c2)c(=O)[nH]c(=O)n3C)CC1 [ASAP-0000058]
[1]; concentration 50.0 uM
  perc_inhibition_mean: -8.971%
[2]; read-out: perc_inhibition_mean, batch_name=ASAP-0000058-001
  inhibition at 50 µM: -8.97%

## c1ccc(-c2n[nH]cc2CNc2cnc3[nH]ncc3c2)cc1 [ASAP-0000059]
[1]; concentration 50.0 uM
  perc_inhibition_mean: -2.044%
[2]; read-out: perc_inhibition_mean, batch_name=ASAP-0000059-001
  inhibition at 50 µM: -2.04%

## COc1cc(Nc2ncnc3[nH]ccc23)ccc1NC(C)=O [ASAP-0000060]
[1]; concentration 50.0 uM
  perc_inhibition_mean: -7.761%
[2]; read-out: perc_inhibition_mean, batch_name=ASAP-0000060-001
  inhibition at 50 µM: -7.76%

## O=C(Nc1cnc2[nH]ncc2c1)c1ccncc1Cl [ASAP-0000061]
[1]; concentration 50.0 uM
  perc_inhibition_mean: -0.272%
[1]; concentration 50.0 uM, n=2
  perc_inhibition_mean: -2.752%
[1]; concentration 100.0 uM, n=2
  perc_inhibition_mean: 2.961%
[2]; read-out: perc_inhibition_mean, batch_name=ASAP-0000061-001
  inhibition at 50 µM: -0.272%
[2]; [3]
  inhibition at 50 µM: -2.75%
  inhibition at 100 µM: 2.96%

## NC(=O)[C@@H]1CCN(C(=O)c2cnc3[nH]c(=O)[nH]c(=O)c3c2)C1 [ASAP-0000062]
[1]; concentration 50.0 uM
  perc_inhibition_mean: -6.322%
[2]; read-out: perc_inhibition_mean, batch_name=ASAP-0000062-001
  inhibition at 50 µM: -6.32%

## Brc1ccc(-n2nnnc2Sc2ncnc3[nH]ccc23)cc1 [ASAP-0000063]
[1]; concentration 50.0 uM
  perc_inhibition_mean: 12.69%
[2]; read-out: perc_inhibition_mean, batch_name=ASAP-0000063-001
  inhibition at 50 µM: 12.7%

## c1ccc(-c2cc(CNc3ncnc4[nH]ccc34)on2)cc1 [ASAP-0000064]
[1]; concentration 100.0 uM
  perc_inhibition_mean: -3.456%
[2]; read-out: perc_inhibition_mean, batch_name=ASAP-0000064-001
  inhibition at 100 µM: -3.46%

## CC1OCCC1(O)CNC(=O)c1ncnc2[nH]ccc12 (stereo not shown) [ASAP-0000065]
[1]; concentration 50.0 uM
  perc_inhibition_mean: 1.864%
[2]; read-out: perc_inhibition_mean, batch_name=ASAP-0000065-001
  inhibition at 50 µM: 1.86%

## O=C(OCc1ccc(Cl)nc1)c1ncnc2[nH]ccc12 [ASAP-0000066]
[1]; concentration 50.0 uM
  perc_inhibition_mean: 6.084%
[2]; read-out: perc_inhibition_mean, batch_name=ASAP-0000066-001
  inhibition at 50 µM: 6.08%

## O=C(Nc1nc2ccc(F)cc2[nH]1)c1cc(N2CCNC2=O)ccc1F [ASAP-0000067]
[1]; concentration 50.0 uM
  perc_inhibition_mean: -7.707%
[2]; read-out: perc_inhibition_mean, batch_name=ASAP-0000067-001
  inhibition at 50 µM: -7.71%

## O=C(NCc1nc(-c2ccco2)n[nH]1)c1cc2nccn2c(=O)[nH]1 [ASAP-0000068]
[1]; concentration 50.0 uM
  perc_inhibition_mean: -5.425%
[2]; read-out: perc_inhibition_mean, batch_name=ASAP-0000068-001
  inhibition at 50 µM: -5.42%

## O=C(Nc1ccc(O)cc1)Nc1ccc(Oc2ccccc2)cc1 [ASAP-0000069]
[1]; concentration 50.0 uM
  perc_inhibition_mean: -3.306%
[2]; read-out: perc_inhibition_mean, batch_name=ASAP-0000069-001
  inhibition at 50 µM: -3.31%

## COc1nc2cc(NC(=O)c3cc(N4CCNC4=O)ccc3F)ccc2[nH]1 [ASAP-0000070]
[1]; concentration 50.0 uM
  perc_inhibition_mean: -4.208%
[2]; read-out: perc_inhibition_mean, batch_name=ASAP-0000070-001
  inhibition at 50 µM: -4.21%

## CC(C)OCCNC(=O)c1cc2c(=O)n3ccccc3nc2n1C [ASAP-0000071]
[1]; concentration 50.0 uM
  perc_inhibition_mean: 14.037%
[2]; read-out: perc_inhibition_mean, batch_name=ASAP-0000071-001
  inhibition at 50 µM: 14%

## O=C(O)[C@H]1CCCCCN1C(=O)c1ncnc2[nH]ccc12 [ASAP-0000072]
[1]; concentration 50.0 uM
  perc_inhibition_mean: 11.75%
[2]; read-out: perc_inhibition_mean, batch_name=ASAP-0000072-001
  inhibition at 50 µM: 11.8%

## C[C@@H](O)[C@@H]1CN(C(=O)c2ncnc3[nH]ccc23)CCO1 [ASAP-0000073]
[1]; concentration 50.0 uM
  perc_inhibition_mean: -3.131%
[2]; read-out: perc_inhibition_mean, batch_name=ASAP-0000073-001
  inhibition at 50 µM: -3.13%

## c1ccc(Cn2ncc3c2CCC[C@@H]3Nc2ncnc3[nH]ccc23)cc1 [ASAP-0000074]
[1]; concentration 50.0 uM
  perc_inhibition_mean: 5.848%
[2]; read-out: perc_inhibition_mean, batch_name=ASAP-0000074-001
  inhibition at 50 µM: 5.85%

## FC(F)(F)CO[C@@H]1CCCN(c2ncnc3[nH]ccc23)C1 [ASAP-0000075]
[1]; concentration 50.0 uM
  perc_inhibition_mean: 22.218%
[2]; read-out: perc_inhibition_mean, batch_name=ASAP-0000075-001
  inhibition at 50 µM: 22.2%

## C[C@@H](CO)Nc1ncnc2[nH]c(C(=O)OC(C)(C)C)cc12 [ASAP-0000076]
[1]; concentration 50.0 uM
  perc_inhibition_mean: 10.712%
[2]; read-out: perc_inhibition_mean, batch_name=ASAP-0000076-001
  inhibition at 50 µM: 10.7%

## CC(C)(C[C@@H]1CCCN(c2ncnc3[nH]ccc23)C1)C(N)=O [ASAP-0000077]
[1]; concentration 50.0 uM
  perc_inhibition_mean: -1.586%
[2]; read-out: perc_inhibition_mean, batch_name=ASAP-0000077-001
  inhibition at 50 µM: -1.59%
